Test results from patent US7396846B2, “Growth hormone secretagogues” (Eli Lilly and Company, priority 2002, dated 2008).
Where a name gives a salt, the structure may show the parent alone.

test system: pituitary cells; assay: Pituitary Cell Culture Assay for Growth Hormone (GH) Secretion; assay type: cell-based; conditions: 0.75 h; stimulation of GH secretion, cultured rat anterior pituitary cells, 45 min at room temperature, rat GH radioimmunoassay
From the text: Growth hormone secretagogue activity can be determined using a typical assay which may employ pituitary cells established in culture, followed by a challenge with the various compounds of formula I, and the levels of growth hormone determined accordingly. Growth hormone levels may be calculated using various radioimmunoassay techniques known to those of skill in the art. One example of such an assay is detailed herein.
Pituitary Cell Culture Assay for Growth Hormone (GH) Secretion
Fifteen 250 g male Sprague-Dawley rats are used for each assay. The animals are killed by decapitation and anterior pituitaries are removed and placed into ice cold culture medium. The pituitaries are sectioned in small pieces and enzymatically digested using trypsin (Difco) to weaken connective tissue. Pituitary cells are dispersed by mechanical agitation, collected, pooled and then seeded into 96-well plates (50,000 cells/well). After 5 days of culture, the cells formed as monolayer (70-80% confluent). Cells are then washed with medium (without phenol red) and incubated for 90 min at 37° C. Afterwards the cells are challenged to secrete GH by the addition of GH secretagogues to the medium. After 45 min at room temperature, the medium is removed, filtered and stored frozen until radioimmunoassays for rat GH were performed. Doses of secretagogue are added in triplicates. Compounds disclosed herein are active in the assay as described. The compounds cause a stimulation of GH secretion resulting in at least 20% increase of the basal level of GH with and EC50<500 nM. […] Both EC50 and efficacy values were calculated by the 4-parameter logistic equation. Such values were pooled and represented as mean+/−standard error, when appropriate.

| SMILES | EC50 |
| --- | --- |
| CCN(CC1=C(c2ccc(S(C)(=O)=O)cc2)S(=O)(=O)NC12CCCCC2)C(=O)[C@@H](COCc1cc(F)cc(F)c1)NC(=O)C(C)(C)N [Example 5, 2-(R)-2-(2-Amino-2-methylpropionylamino)-3-(3,5-difluorophenyl)methoxypropionic acid N-ethyl-N-(3-(4-methanesulfonyl-phenyl)-2,2-dioxo-2-thia-1-azaspiro[4.5]dec-3-ene-4-ylmethyl)amide Hydrochloride] | 0.6 nM |
| CCN(CC1=C(c2ccc(S(C)(=O)=O)cc2)S(=O)(=O)NC12CCCCC2)C(=O)[C@@H](COCc1cc(F)ccc1F)NC(=O)C(C)(C)N [Example 2, 2-(R)-2-(2-Amino-2-methylpropionylamino)-3-(2,5-difluorophenyl)methoxypropionic acid N-ethyl-N-(3-(4-methanesulfonyl-phenyl)-2,2-dioxo-2-thia-1-azaspiro[4.5]dec-3-ene-4-ylmethyl)amide Hydrochloride] | 0.23 nM |
| CCN(CC1=C(c2ccc(S(C)(=O)=O)cc2)S(=O)(=O)NC12CCCCC2)C(=O)[C@@H](COCc1ccc(F)c(F)c1)NC(=O)C(C)(C)N [Example 4, 2-(R)-2-(2-Amino-2-methylpropionylamino)-3-(3,4-difluorophenyl)methoxypropionic acid N-ethyl-N-(3-(4-methanesulfonyl-phenyl)-2,2-dioxo-2-thia-1-azaspiro[4.5]dec-3-ene-4-ylmethyl)amide Hydrochloride] | 0.9 nM |
| CN(CC1=C(c2ccc(Cl)cc2)S(=O)(=O)NC1(C)C)C(=O)[C@@H](COCc1ccc(F)cc1)NC(=O)C(C)(C)N [Example 7, 2-(R)-2-(2-Amino-2-methylpropionylamino)-3-(4-fluorophenyl)methoxy propionic acid N-[5-(4-chlorophenyl)-3,3-dimethyl-1,1-dioxo-2,3-dihydroisothiazol-4-ylmethyl]-N-methylamide Hydrochloride] | 1.7 nM |

same assay, conditions: stimulation of GH secretion, cultured rat anterior pituitary cells, 45 min at room temperature, rat GH radioimmunoassay

| SMILES | EC50 |
| --- | --- |
| CCN(CC1=C(c2ccc(Cl)cc2)S(=O)(=O)NC1(C)C)C(=O)[C@@H](COCc1cc(F)ccc1F)NC(=O)C(C)(C)N [Example 15, 2-(R)-2-(2-Amino-2-methylpropionylamino)-3-(2,5-difluorophenyl)methoxy propionic acid N-[5-(4-chlorophenyl)-3,3-dimethyl-1,1-dioxo-2,3-dihydroisothiazol-4-ylmethyl]-N-ethylamide Hydrochloride] | 2.1 nM |
| CCN(CC1=C(c2ccc(Cl)cc2)S(=O)(=O)NC1(C)C)C(=O)[C@@H](COCc1c(F)cccc1F)NC(=O)C(C)(C)N [Example 16, 2-(R)-2-(2-Amino-2-methylpropionylamino)-3-(2,6-difluorophenyl)methoxy propionic acid N-[5-(4-chlorophenyl)-3,3-dimethyl-1,1-dioxo-2,3-dihydroisothiazol-4-ylmethyl]-N-ethylamide Hydrochloride] | 1.1 nM |
| CCN(CC1=C(c2ccc(Cl)cc2)S(=O)(=O)NC1(C)C)C(=O)[C@@H](COCc1ccc(F)cc1F)NC(=O)C(C)(C)N [Example 12, 2-(R)-2-(2-Amino-2-methylpropionylamino)-3-(2,4-difluorophenyl)methoxy propionic acid N-[5-(4-chlorophenyl)-3,3-dimethyl-1,1-dioxo-2,3-dihydroisothiazol-4-ylmethyl]-N-ethylamide Hydrochloride] | 8 nM |
